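Grown in 96-well plates, cells were treated for 48 hours with each compound at five concentrations. Insufficient inhibition: endpoint recorded as highest concentration tested. GI50 = concentration required for 50% inhibition of growth.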 The source made the active and inactive calls. No stated cut-off is given here; in the data, active = GI50 up to about 1.1 µM and inactive = higher.
Key:
Assay in all cases: inhibition of tumour cell growth, NCI panel, 48 h
[1] = tested on: XF498
[2] = tested on: DLD-1
[3] = tested on: IGROV-1
[4] = tested on: MOLT-4
[5] = tested on: NCI-H226
[6] = tested on: M19-MEL
[7] = tested on: SNB-19
[8] = tested on: HOP-62
[9] = tested on: LXFL 529
[10] = tested on: RXF 393
[11] = tested on: SF-268
[12] = tested on: SR
[13] = tested on: KM12
[14] = tested on: SF-539
[15] = tested on: ACHN
[16] = tested on: OVCAR-8
[17] = tested on: RXF 631
[18] = tested on: OVCAR-5
[19] = tested on: HL-60
[20] = tested on: HOP-92
[21] = tested on: SW-620
[22] = tested on: A498
[23] = tested on: OVCAR-4
[24] = tested on: SK-MEL-28
[25] = tested on: EKVX
[26] = tested on: CCRF-CEM
[27] = tested on: NCI-H23
[28] = tested on: CAKI-1
[29] = tested on: SNB-78
[30] = tested on: SN12C
[31] = tested on: OVCAR-3
[32] = tested on: KM-20L2
[33] = tested on: UACC-62
[34] = tested on: HT-29
[35] = tested on: SF-295
[36] = tested on: HCT-116
[37] = tested on: DMS-273
[38] = tested on: UACC-257
[39] = tested on: UO-31
[40] = tested on: Malme-3M
[41] = tested on: TK-10
[42] = tested on: U-251
[43] = tested on: SK-MEL-2
[44] = tested on: A549
[45] = tested on: 786-0
[46] = tested on: M14
[47] = tested on: K562
[48] = tested on: HCC 2998
[49] = tested on: SK-OV-3
[50] = tested on: NCI-H522
[51] = tested on: SNB-75
[52] = tested on: RPMI-8226
[53] = tested on: SK-MEL-5
[54] = tested on: HCT-15
[55] = tested on: LOX IMVI
[56] = tested on: COLO 205
[57] = tested on: NCI-H460
[58] = tested on: DMS-114

COc1ccc2nc3ccccc3c(NCCN(CCCl)CCCl)c2c1
GI50 [1]: 0.497 µM (active)
GI50 [2]: 0.738 µM (active)
GI50 [3]: 1.3 µM (inactive)
GI50 [4]: 0.0592 µM (active)
GI50 [5]: 1 µM (active)
GI50 [6]: 1.27 µM (inactive)
GI50 [7]: 0.656 µM (active)
GI50 [8]: 0.555 µM (active)
GI50 [9]: 0.466 µM (active)
GI50 [10]: 1.66 µM (inactive)
GI50 [11]: 0.783 µM (active)
GI50 [12]: 0.0321 µM (active)
GI50 [13]: 1.34 µM (inactive)
GI50 [14]: 0.608 µM (active)
GI50 [15]: 0.336 µM (active)
GI50 [16]: 0.649 µM (active)
GI50 [17]: 0.455 µM (active)
GI50 [18]: 0.643 µM (active)
GI50 [19]: 0.206 µM (active)
GI50 [20]: 0.476 µM (active)
GI50 [21]: 0.238 µM (active)
GI50 [22]: 2.49 µM (inactive)
GI50 [23]: 1.08 µM (active)
GI50 [24]: 2.36 µM (inactive)
GI50 [25]: 2.35 µM (inactive)
GI50 [26]: 0.144 µM (active)
GI50 [27]: 0.156 µM (active)
GI50 [28]: 0.251 µM (active)
GI50 [29]: 0.769 µM (active)
GI50 [30]: 0.658 µM (active)
GI50 [31]: 0.269 µM (active)
GI50 [32]: 0.474 µM (active)
GI50 [33]: 1 µM (active)
GI50 [34]: 0.543 µM (active)
GI50 [35]: 0.614 µM (active)
GI50 [36]: 0.272 µM (active)
GI50 [37]: 0.333 µM (active)
GI50 [38]: 1.3 µM (inactive)
GI50 [39]: 1.57 µM (inactive)
GI50 [40]: 1.51 µM (inactive)
GI50 [41]: 1.76 µM (inactive)
GI50 [42]: 0.326 µM (active)
GI50 [43]: 1.81 µM (inactive)
GI50 [44]: 0.771 µM (active)
GI50 [45]: 0.33 µM (active)
GI50 [46]: 1.03 µM (active)
GI50 [47]: 0.407 µM (active)
GI50 [48]: 1.28 µM (inactive)
GI50 [49]: 1.48 µM (inactive)
GI50 [50]: 0.348 µM (active)
GI50 [51]: 1.25 µM (inactive)

COc1cccc(-c2cc(=O)c3cc(C)c(C)c(C(=O)O)c3o2)c1
GI50 [1]: > 100 µM (inactive)
GI50 [2]: > 100 µM (inactive)
GI50 [3]: > 100 µM (inactive)
GI50 [4]: > 100 µM (inactive)
GI50 [6]: > 100 µM (inactive)
GI50 [52]: > 100 µM (inactive)
GI50 [7]: > 100 µM (inactive)
GI50 [8]: > 100 µM (inactive)
GI50 [9]: > 100 µM (inactive)
GI50 [11]: > 100 µM (inactive)
GI50 [13]: > 100 µM (inactive)
GI50 [14]: > 100 µM (inactive)
GI50 [15]: > 100 µM (inactive)
GI50 [16]: > 100 µM (inactive)
GI50 [17]: > 100 µM (inactive)
GI50 [18]: > 100 µM (inactive)
GI50 [19]: > 100 µM (inactive)
GI50 [53]: > 100 µM (inactive)
GI50 [20]: > 100 µM (inactive)
GI50 [21]: > 100 µM (inactive)
GI50 [22]: > 100 µM (inactive)
GI50 [23]: > 100 µM (inactive)
GI50 [24]: > 100 µM (inactive)
GI50 [25]: > 100 µM (inactive)
GI50 [26]: > 100 µM (inactive)
GI50 [54]: > 100 µM
GI50 [27]: > 100 µM (inactive)
GI50 [55]: > 100 µM (inactive)
GI50 [29]: > 100 µM (inactive)
GI50 [30]: > 100 µM (inactive)
GI50 [31]: > 100 µM (inactive)
GI50 [32]: > 100 µM (inactive)
GI50 [33]: > 100 µM (inactive)
GI50 [34]: > 100 µM (inactive)
GI50 [56]: > 100 µM (inactive)
GI50 [35]: > 100 µM (inactive)
GI50 [36]: > 100 µM (inactive)
GI50 [37]: > 100 µM (inactive)
GI50 [38]: > 100 µM (inactive)
GI50 [39]: > 100 µM (inactive)
GI50 [57]: > 100 µM (inactive)
GI50 [40]: > 100 µM (inactive)
GI50 [41]: > 100 µM (inactive)
GI50 [42]: > 100 µM (inactive)
GI50 [43]: > 100 µM (inactive)
GI50 [58]: > 100 µM (inactive)
GI50 [44]: > 100 µM (inactive)
GI50 [45]: > 100 µM (inactive)
GI50 [46]: > 100 µM (inactive)
GI50 [47]: > 100 µM (inactive)
GI50 [48]: > 100 µM (inactive)
GI50 [49]: > 100 µM (inactive)
GI50 [50]: > 100 µM (inactive)
GI50 [51]: 16.9 µM (inactive)

CCC12CCCN(Cc3ccccc3)C1c1c(n(C)c3ccccc13)C(C(=O)OC)C2 (configuration not stated)
GI50 [1]: 36.8 µM (inactive)
GI50 [2]: 212 µM (inactive)
GI50 [3]: 146 µM (inactive)
GI50 [4]: 74.3 µM (inactive)
GI50 [5]: 66.2 µM (inactive)
GI50 [6]: 112 µM (inactive)
GI50 [52]: 82.4 µM (inactive)
GI50 [7]: 72.9 µM (inactive)
GI50 [8]: 129 µM (inactive)
GI50 [9]: 96.6 µM (inactive)
GI50 [10]: 128 µM (inactive)
GI50 [11]: 175 µM (inactive)
GI50 [12]: 72.6 µM (inactive)
GI50 [13]: 85.3 µM (inactive)
GI50 [14]: 126 µM (inactive)
GI50 [15]: 182 µM (inactive)
GI50 [16]: 169 µM (inactive)
GI50 [17]: 111 µM (inactive)
GI50 [18]: 78.2 µM (inactive)
GI50 [19]: 87.3 µM (inactive)
GI50 [53]: 43.8 µM (inactive)
GI50 [20]: 79.8 µM (inactive)
GI50 [21]: 115 µM (inactive)
GI50 [24]: > 239 µM (inactive)
GI50 [25]: > 239 µM (inactive)
GI50 [26]: 143 µM (inactive)
GI50 [54]: 70.3 µM
GI50 [27]: 77.1 µM (inactive)
GI50 [55]: 158 µM (inactive)
GI50 [28]: 205 µM (inactive)
GI50 [30]: 84.1 µM (inactive)
GI50 [31]: 53.7 µM (inactive)
GI50 [32]: 130 µM (inactive)
GI50 [33]: > 239 µM (inactive)
GI50 [34]: 73.1 µM (inactive)
GI50 [56]: 107 µM (inactive)
GI50 [35]: 75.7 µM (inactive)
GI50 [36]: 51.6 µM (inactive)
GI50 [37]: 84.5 µM (inactive)
GI50 [38]: 66.4 µM (inactive)
GI50 [57]: 117 µM (inactive)
GI50 [40]: > 239 µM (inactive)
GI50 [41]: > 239 µM (inactive)
GI50 [42]: 117 µM (inactive)
GI50 [43]: > 239 µM (inactive)
GI50 [58]: 90.6 µM (inactive)
GI50 [44]: > 239 µM (inactive)
GI50 [45]: 206 µM (inactive)
GI50 [47]: 93.5 µM (inactive)
GI50 [48]: 164 µM (inactive)
GI50 [49]: 236 µM (inactive)
GI50 [50]: 53.2 µM (inactive)

Reference: ChEMBL document CHEMBL1201862, “PubChem BioAssay data set” (2004)
